Source: US12145923B2, “Tetrahydroisoquinoline compound, preparation method therefor, pharmaceutical composition containing same, and use thereof” (SHANGHAI INSTITUTE OF MATERIA MEDICA, CHINESE ACADEMY OF …, priority 2018, dated 2024)
Where “and” joins values, the source holds several entries; their conditions need not be identical. Equal values may be shown once.

Key:
RAW 264.7 cells = assay: Cytotoxicity on RAW 264.7 cells (CCK-8 method); type: cell-based, mouse
Description: Mouse RAW 264.7 cells were purchased from American Type Culture Collection (Manassas, VA, USA), and cultivated in DMEM culture medium (Hyclone, South Logan, UT, USA) containing 10% fetal bovine serum (Hyclone, South Logan, UT, USA). Cells were collected and counted before use, and inoculated in a 96-well plate (Corning, NY, USA) at 1×10^5/well. […] 20 μl of CCK-8 solution (Dojindo, Kumamoto, Japan) was added at 30 min before the end of the culture. After the cultivation was ended, the absorbance OD value was measured at 450 nm (reference 650 nm) on amicroplate reader (Molecular Devices, Sunnyvale, CA, USA). The toxicity of the compound on RAW 264.7 cells was calculated by dividing the OD value of the test sample by the OD value of the cell control well, which was labeled as the cell survival rate M %.

TNF-α secretion in PBMC = assay: Inhibition of LPS-stimulated TNF-α secretion in PBMC (ELISA); type: cell-based; conditions: Homo sapiens, PBMC; for inhibition at 1 µM / inhibition at 10 µM: read-out: Inhibition rate %
Excerpt: According to the difference in cell density in human blood, PBMC (peripheral blood mononuclear cell, PBMC) was directly separated and purified by gradient centrifugation using lymphocyte separation fluid. The cell type was mononuclear cells in blood, mainly including lymphocytes (T/B), monocytes, macrophages, dendritic cells and other minor cell types, of which lymphocytes account for a large part, which can directly in vitro simulate the blood immune environment.
PBMC cells isolated from human blood were implanted into 96-well plates at 2*10^5/ml; compounds in gradients were added, with at least three replicates for each gradient; After the PBMCs were incubated at 37° C., 5% CO2 for 1 hour, LPS was added (the final concentration was 10 ug/ml) to stimulate PBMC to express TNF-α, and incubated for another 18-20 h at 37° C., 5% C02. The 96-well plate was collected. The background control with no stimulant and stimulation control wells were also set, with a total volume of 200 μl. The culture supernatant was collected by centrifugation, and the expression level of TNF-α in the culture supernatant was detected by ELISA.

[1] = test system: tumor necrosis factor-α secretion in RAW 264.7 cells; assay: Inhibition of LPS-stimulated tumor necrosis factor-α secretion in RAW 264.7 cells (ELISA); type: cell-based, mouse; conditions: Mus musculus, RAW264.7, 4 h, read-out: Tumor necrosis factor-α inhibition rate/%
[2] = target: Human PDE4D catalytic domain (Homo sapiens (Human), UniProt Q08499); assay: Scintillation Proximity Assay (SPA), inhibition of PDE4D catalytic domain activity; type: biochemical; conditions: Compound concentration: 1 μM; read-out: PDE4D enzyme activity inhibition rate %
Sequence of Human PDE4D catalytic domain (Q08499 386-715): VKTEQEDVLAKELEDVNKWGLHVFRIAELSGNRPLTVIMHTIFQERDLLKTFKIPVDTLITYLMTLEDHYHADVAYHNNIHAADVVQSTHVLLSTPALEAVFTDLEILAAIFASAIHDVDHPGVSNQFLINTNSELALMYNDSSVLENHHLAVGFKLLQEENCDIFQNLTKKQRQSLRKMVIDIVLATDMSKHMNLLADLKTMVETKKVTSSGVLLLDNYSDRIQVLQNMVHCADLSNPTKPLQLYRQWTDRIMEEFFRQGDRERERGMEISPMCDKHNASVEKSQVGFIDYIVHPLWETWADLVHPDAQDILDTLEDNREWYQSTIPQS
Description: The scintillation Proximity Assay (SPA) method was used to determine the inhibitory effect of compounds on the activity of PDE4D catalytic domain. Human PDE4D catalytic domain protein was obtained by expression and purification in E. coli. […] [^3H]-cAMP, scintillation beads (RPNQO150, Perkin Elmer), and 96-well scintillation microplates (Isoplate-96, Perkin Elmer) were purchased from Perkin Elmer Company.
Finally, 10 μl [^3H]-cAMP (0.005 μCi/μl) was added and incubated for 30 min at 30° C. in a water bath. 50 μl SPA beads was added to quench the reaction, shaked appropriately, and stood for 20 minutes. A microplate scintillation counter was used.

| Compound | Cell survival rate/% (RAW 264.7 cells; RAW 264.7, 0.5 μM) | Cell survival rate/% (RAW 264.7 cells; RAW 264.7, 5 μM) | Cell survival rate/% (RAW 264.7 cells; RAW 264.7, 50 μM) | IC50 (TNF-α secretion in PBMC) [nM] | inhibition at 1 µM (TNF-α secretion in PBMC) [%] | inhibition at 10 µM (TNF-α secretion in PBMC) [%] | inhibition at 0.5 µM [1] [%] | inhibition at 5 µM [1] [%] | inhibition at 50 µM [1] [%] | inhibition at 1 µM [2] [%] |
| --- | --- | --- | --- | --- | --- | --- | --- | --- | --- | --- |
| COc1cc2c(cc1OC)[C@@H](CCc1c[nH]c3ccccc13)N(C=O)CC2 [(R)-A1, (R)-1-(2-(1H-indol-3-yl)ethyl)-6,7-dimethoxy-3,4-dihydroisoquinoline-2(1H)-formaldehyde] | 102.7% and 135.9% | 106.2% and 110.1% | 89.3% and 122.5% | – | – | – | – | – | – | – |
| COc1cc2c(cc1OCC1CC1)[C@H](CCc1c[nH]c3ccccc13)N(C=O)CC2 [(S)-A3, (S)-1-(2-(1H-indol-3-yl)ethyl)-7-(cyclopropyl-methoxy)-6-methoxy-3,4-dihydroisoquinoline-2(1H)-formaldehyde] | 110.9% | 86.5% | 77.3% | 2650 | 31.2 | 76.6 | -2.9 | -3.5 | 54.6 | – |
| CCOc1cc2c(cc1OC)CCN(C=O)[C@H]2CCc1c[nH]c2ccccc12 [(S)-A4, (S)-1-(2-(1H-indol-3-yl)ethyl)-7-ethoxy-6-methoxy-3,4-dihydroisoquinoline-2(1H)-formaldehyde] | 103% | 100.8% | 98.1% | – | – | – | – | – | – | – |
| COc1cc2c(cc1OCC1CC1)[C@H](CCc1c[nH]c3cc(C)ccc13)N(C=O)CC2 [(S)-C4, (S)-7-(cyclopropylmethoxy)-6-methoxy-1-(2-(6-methyl-1H-indol-3-yl)ethyl)-3,4-dihydroisoquinoline-2(1H)-formaldehyde] | 97.6% | 71.8% | 77.3% | 2120 | 32 | 76.9 | -30.1 | -25.6 | 54.5 | – |
| CCOc1cc2c(cc1OC)CCN(C=O)[C@H]2Cc1c[nH]c2ccccc12 [(S)-C10, (S)-1-((1H-indol-3-yl)methyl)-7-ethoxy-6-methoxy-3,4-dihydroisoquinoline-2(1H)-formaldehyde] | 89.1% | 84.6% | 104.1% | – | – | – | – | – | – | – |
| COc1cc2c(cc1OC)[C@H](Cc1c[nH]c3ccccc13)N(C(=O)CS(C)(=O)=O)CC2 [(S)-C13, (S)-1-(1-((1H-indol-3-yl)methyl)-6,7-dimethoxy-3,4-dihydroisoquinoline-2(1H)-yl)-2-(methanesulfonyl)ethane-1-one] | 111.2% | 91.4% | 101.7% | – | – | 29.9 | -3 | -13.7 | -37.3 | – |
| CCOc1cc2c(cc1OC)CCN(CCS(C)(=O)=O)[C@H]2Cc1c[nH]c2ccccc12 [(S)-C14, (S)-1-((1H-indol-3-yl)methyl)-7-ethoxy-6-methoxy-2-(2-(methylsulfonyl)ethyl)-1,2,3,4-tetrahydroisoquinoline] | 128.3% | 98.8% | 97.3% | – | 17 | 54.5 | 2.4 | -2.2 | 13.6 | – |
| CCOc1cc2c(cc1OC)CCN(C(=O)CS(C)(=O)=O)[C@H]2Cc1c[nH]c2ccccc12 [(S)-C15, (S)-1-(1-((1H-indol-3-yl)methyl)-7-ethoxy-6-methoxy-3,4-dihydroisoquinoline-2(1H)-yl)-2-(methanesulfonyl)ethane-1-one] | 107.3% | 110.5% | 101.2% | – | – | -23.9 | 18 | -4.5 | -37.7 | – |
| CCOc1cc2c(cc1OC)CCN(C(=O)COC)[C@H]2Cc1c[nH]c2ccccc12 [(S)-C16, (S)-1-(1-((1H-indol-3-yl)methyl)-7-ethoxy-6-methoxy-3,4-dihydroisoquinoline-2(1H)-yl)-2-methoxyethane-1-one] | 123.2% | 133.1% | 113.1% | – | – | 1.89 | 2.6 | 12.7 | 10.4 | – |
| CCOc1cc2c(cc1OC)CCN(C=O)[C@H]2Cc1c[nH]c2ccc(C)cc12 [(S)-C17, (S)-7-ethoxy-6-methoxy-1-((5-methyl-1H-indol-3-yl)methyl)-3,4-dihydroisoquinoline-2(1H)-formaldehyde] | 101.7% | 87.3% | 103.9% | – | – | 18.8 | -32.2 | -33.7 | -13.4 | – |
| CCOc1cc2c(cc1OC)CCN(C=O)[C@H]2Cc1c[nH]c2ccc(OC)cc12 [(S)-C18, (S)-7-ethoxy-6-methoxy-1-((5-methoxy-1H-indol-3-yl)methyl)-3,4-dihydroisoquinoline-2(1H)-formaldehyde] | 118% | 111.5% | 112.9% | – | – | 39.4 | 15.8 | 14.5 | 38.8 | – |
| CCOc1cc2c(cc1OC)CCN(S(=O)(=O)c1ccccc1)[C@H]2CCc1c[nH]c2ccc(OC)cc12 [(S)-C47, (S)-7-ethoxy-6-methoxy-1-(2-(5-methoxy-1H-indol-3-yl)ethyl)-2-phenylsulfonyl-1,2,3,4-tetrahydroisoquinoline] | – | – | – | – | – | – | – | – | – | 49.4 |
| CCOc1cc2c(cc1OC)CCN(S(=O)(=O)C1CC1)[C@H]2CCc1c[nH]c2ccc(OC)cc12 [(S)-C48, (S)-7-ethoxy-6-methoxy-1-(2-(5-methoxy-1H-indol-3-yl)ethyl)-2-cyclopropylsulfonyl-1,2,3,4-tetrahydroisoquinoline] | – | – | – | – | – | – | – | – | – | 62 |
| CCOc1cc2c(cc1OC)CCN(S(=O)(=O)C1CCCCC1)[C@H]2CCc1c[nH]c2ccc(OC)cc12 [(S)-C49, (S)-7-ethoxy-6-methoxy-1-(2-(5-methoxy-1H-indol-3-yl)ethyl)-2-cyclohexylsulfonyl-1,2,3,4-tetrahydroisoquinoline] | – | – | – | – | – | – | – | – | – | 70.8 |
| COc1cc2c(cc1OCC1CC1)C(CCc1c[nH]c3ccccc13)N(C=O)CC2 (centres unmarked) [Compound A3, 1-(2-(1H-indol-3-yl)ethyl)-7-(cyclopropyl-methoxy)-6-methoxy-3,4-dihydroisoquinoline-2(1H)-formaldehyde] | 96.9% | 108.2% | 94% | 5690 | 0.84 | 65.7 | -0.5 | -15.5 | 27.3 | – |
| CCOc1cc2c(cc1OC)CCN(C=O)C2CCc1c[nH]c2ccccc12 (centres unmarked) [Compound A4, 1-(2-(1H-indol-3-yl)ethyl)-7-ethoxy-6-methoxy-3,4-dihydroisoquinoline-2(1H)-formaldehyde] | 100.6% | 113.4% | 95.3% | – | – | – | – | – | – | – |
| CCOc1cc2c(cc1OC)CCN(C=O)C2Cc1c[nH]c2ccccc12 (centres unmarked) [Compound C10, 1-((1H-indol-3-yl)methyl)-7-ethoxy-6-methoxy-3,4-dihydroisoquinoline-2(1H)-formaldehyde] | 119.5% | 111.4% | 94% | – | – | – | – | – | – | – |
| COCC(=O)N1CCc2cc(OC)c(OC)cc2C1Cc1c[nH]c2ccccc12 (centres unmarked) [Compound C11, 1-(1-((1H-indol-3-yl)methyl)-6,7-dimethoxy-3,4-dihydroisoquinoline-2(1H)-yl)-2-methoxyethane-1-one] | 97.9% | 91.2% | 87.3% | – | 39.9 | 50 | -12.7 | -11.9 | 20.1 | – |
| COc1cc2c(cc1OC)C(Cc1c[nH]c3ccccc13)N(CCS(C)(=O)=O)CC2 (centres unmarked) [Compound C12, 1-((1H-indol-3-yl)methyl)-6,7-dimethoxy-2-(2-(methylsulfonyl)ethyl)-1,2,3,4-tetrahydroisoquinoline] | 93.6% | 115.7% | 103.8% | – | 45.4 | 52.7 | -15.1 | -7.9 | 25.5 | – |
